Source: the supplement of paper PMC11061612

How the values were obtained:
Experiment in all cases: combination Emax (second highest fraction inhibited in the dose matrix, 72 h); higher = more inhibition; extreme values may be limits of the assay
NCI-H2818 (Mesothelioma) = system: NCI-H2818 (Mesothelioma)
How it was run: (§1)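 Cell lines in DMEM/F12 or RPMI with 10% FBS were plated in 1536-well plates, held 24 hours at 37°C, 5% CO2, then given two-drug dose matrices for 72 hours (DMSO typically 0.2%). Viability was read by CellTiter-Glo 2.0 luminescence and scaled as inhibition from 0 (vehicle wells) to 1 (blank wells). Combination Emax is the second-highest inhibition in the matrix; Bliss excess is observed combination effect minus expected EA + EB − EA·EB, EA and EB being single-agent effects.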

WM-115 (Melanoma) = system: WM-115 (Melanoma)
How it was run: as §1

[1] = system: COLO-678 (Colorectal Carcinoma)
How it was run: as §1

MEL-JUSO (Melanoma) = system: MEL-JUSO (Melanoma)
How it was run: as §1

[2] = system: EVSA-T (Breast Carcinoma)
How it was run: as §1

[3] = system: PANC-08-13 (Pancreatic Carcinoma)
How it was run: as §1

LN-18 (Glioblastoma) = system: LN-18 (Glioblastoma)
How it was run: as §1

[4] = system: SW837 (Colorectal Carcinoma)
How it was run: as §1

[5] = system: KCL-22 (Chronic Myelogenous Leukemia)
How it was run: as §1

[6] = system: DND-41 (T-Lymphoblastic Leukemia)
How it was run: as §1

[7] = system: NCI-H1792 (Lung Adenocarcinoma)
How it was run: as §1

[8] = system: MS751 (Cervical Carcinoma)
How it was run: as §1

TC-71 (Ewing's Sarcoma) = system: TC-71 (Ewing's Sarcoma)
How it was run: as §1

[9] = system: MKN28 (Gastric Carcinoma)
How it was run: as §1

[10] = system: CAMA-1 (Breast Carcinoma)
How it was run: as §1

[11] = system: BFTC-905 (Bladder Carcinoma)
How it was run: as §1

U251 (Low Grade Glioma) = system: U251 (Low Grade Glioma)
How it was run: as §1

[12] = system: KYSE-180 (Esophageal Squamous Cell Carcinoma)
How it was run: as §1

[13] = system: BL-41 (Burkitt's Lymphoma)
How it was run: as §1

With `C[C@@H](c1ccc2nccn2c1)n1nnc2ncc(-c3cnn(C)c3)nc21` [Savolitinib] + Cc1c2c(nn1C)CSCc1cc(n(C)n1)CSc1cc(c3ccccc3c1)OCCCc1c(C(=O)O)n(C)c3c-2c(Cl)ccc13 [AZD5991] (first compound max 1 µM, 7x7, partner max 1 µM) the “combination Emax” value (NCI-H2818 (Mesothelioma)) was 0.16, the “combination Emax” value (WM-115 (Melanoma)) was 0.185 and the “combination Emax” value [1] was 0.161. The “combination Emax” value (MEL-JUSO (Melanoma)) was 0.183, the “combination Emax” value [2] was 1 and the “combination Emax” value [3] was 0.146. For the same compound, the “combination Emax” value (LN-18 (Glioblastoma)) was 0.202, the “combination Emax” value [4] was 0.124 and the “combination Emax” value [5] was 0.289. For the same compound, the “combination Emax” value [6] was 0.172, the “combination Emax” value [7] was 0.214 and the “combination Emax” value [8] was 0.773. The “combination Emax” value (TC-71 (Ewing's Sarcoma)) was 0.412, the “combination Emax” value [9] was 0.0861 and the “combination Emax” value [10] was 0.494. The “combination Emax” value [11] was 0.191, the “combination Emax” value (U251 (Low Grade Glioma)) was 0.217 and the “combination Emax” value [12] was 0.278. The “combination Emax” value [13] was 1.

With `COc1nnc2ccc(N3CCC(c4ccc(OCCN5CCN(C)C(=O)[C@H]5C)cc4)CC3)nn12` [AZD5153] + CC1(C)CCC(CN2CCN(c3ccc(C(=O)NS(=O)(=O)c4ccc(NCC5CCOCC5)c([N+](=O)[O-])c4)c(Oc4cnc5[nH]ccc5c4)c3)CC2)=C(c2ccc(Cl)cc2)C1 [Venetoclax] (first compound max 1 µM, 7x7, partner max 1 µM) the “combination Emax” value (NCI-H2818 (Mesothelioma)) was 0.268, the “combination Emax” value (WM-115 (Melanoma)) was 0.365 and the “combination Emax” value [1] was 0.408. The “combination Emax” value (MEL-JUSO (Melanoma)) was 0.215, the “combination Emax” value [2] was 0.938 and the “combination Emax” value [3] was 0.625. The “combination Emax” value (LN-18 (Glioblastoma)) was 0.638, the “combination Emax” value [4] was 0.551 and the “combination Emax” value [5] was 0.666. The “combination Emax” value [6] was 0.835, the “combination Emax” value [7] was 0.676 and the “combination Emax” value [8] was 0.702. The “combination Emax” value (TC-71 (Ewing's Sarcoma)) was 0.657, the “combination Emax” value [9] was 0.446 and the “combination Emax” value [10] was 0.456. The “combination Emax” value [11] was 0.633, the “combination Emax” value (U251 (Low Grade Glioma)) was 0.449 and the “combination Emax” value [12] was 0.293. The “combination Emax” value [13] was 0.87.

For `CS(=O)(=O)CCNCc1ccc(-c2ccc3ncnc(Nc4ccc(OCc5cccc(F)c5)c(Cl)c4)c3c2)o1` [Lapatinib] + C[C@@H](Oc1cc(-c2cnn(C3CCNCC3)c2)cnc1N)c1c(Cl)ccc(F)c1Cl [Crizotinib] (first compound max 10 µM, 7x7, partner max 10 µM), the “combination Emax” value (NCI-H2818 (Mesothelioma)) was 0.59, the “combination Emax” value (WM-115 (Melanoma)) was 0.877 and the “combination Emax” value [1] was 0.62. The “combination Emax” value (MEL-JUSO (Melanoma)) was 0.912, the “combination Emax” value [2] was 0.985 and the “combination Emax” value [3] was 0.802. For the same compound, the “combination Emax” value (LN-18 (Glioblastoma)) was 0.965, the “combination Emax” value [4] was 0.772 and the “combination Emax” value [5] was 0.979. The “combination Emax” value [6] was 0.946, the “combination Emax” value [7] was 0.924 and the “combination Emax” value [8] was 0.987. For the same compound, the “combination Emax” value (TC-71 (Ewing's Sarcoma)) was 0.758, the “combination Emax” value [9] was 0.779 and the “combination Emax” value [10] was 0.321. The “combination Emax” value [11] was 0.963, the “combination Emax” value (U251 (Low Grade Glioma)) was 0.785 and the “combination Emax” value [12] was 0.952. For the same compound, the “combination Emax” value [13] was 0.96.

In the case of `NC1(C(=O)N[C@@H](CCO)c2ccc(Cl)cc2)CCN(c2ncnc3[nH]ccc23)CC1` [Capivasertib] + Cn1cnc2c(F)c(Nc3ccc(Br)cc3Cl)c(C(=O)NOCCO)cc21 [Selumetinib] (first compound max 10 µM, 7x7, partner max 10 µM), the “combination Emax” value (NCI-H2818 (Mesothelioma)) is reported as 0.318, the “combination Emax” value (WM-115 (Melanoma)) is reported as 0.885 and the “combination Emax” value [1] is reported as 0.544. For the same compound, the “combination Emax” value (MEL-JUSO (Melanoma)) was 0.545, the “combination Emax” value [2] was 0.947 and the “combination Emax” value [3] was 0.405. The “combination Emax” value (LN-18 (Glioblastoma)) was 0.603, the “combination Emax” value [4] was 0.603 and the “combination Emax” value [5] was 0.604. The “combination Emax” value [6] was 0.233, the “combination Emax” value [7] was 0.504 and the “combination Emax” value [8] was 0.263. The “combination Emax” value (TC-71 (Ewing's Sarcoma)) was 0.438, the “combination Emax” value [9] was 0.241 and the “combination Emax” value [10] was 0.693. The “combination Emax” value [11] was 0.746, the “combination Emax” value (U251 (Low Grade Glioma)) was 0.494 and the “combination Emax” value [12] was 0.48. For the same compound, the “combination Emax” value [13] was 0.287.

In the case of `NC1(C(=O)N[C@@H](CCO)c2ccc(Cl)cc2)CCN(c2ncnc3[nH]ccc23)CC1` [Capivasertib] + CC(=O)c1c(C)c2cnc(Nc3ccc(N4CCNCC4)cn3)nc2n(C2CCCC2)c1=O [Palbociclib] (first compound max 10 µM, 7x7, partner max 10 µM), the “combination Emax” value (NCI-H2818 (Mesothelioma)) is reported as 0.316, the “combination Emax” value (WM-115 (Melanoma)) is reported as 0.574 and the “combination Emax” value [1] is reported as 0.354. The “combination Emax” value (MEL-JUSO (Melanoma)) was 0.518, the “combination Emax” value [2] was 0.942 and the “combination Emax” value [3] was 0.308. The “combination Emax” value (LN-18 (Glioblastoma)) was 0.731, the “combination Emax” value [4] was 0.151 and the “combination Emax” value [5] was 0.612. The “combination Emax” value [6] was 0.462, the “combination Emax” value [7] was 0.553 and the “combination Emax” value [8] was 0.236. For the same compound, the “combination Emax” value (TC-71 (Ewing's Sarcoma)) was 0.511, the “combination Emax” value [9] was 0.155 and the “combination Emax” value [10] was 0.668. For the same compound, the “combination Emax” value [11] was 0.397, the “combination Emax” value (U251 (Low Grade Glioma)) was 0.441 and the “combination Emax” value [12] was 0.572. The “combination Emax” value [13] was 0.419.

In the case of `COc1nnc2ccc(N3CCC(c4ccc(OCCN5CCN(C)C(=O)[C@H]5C)cc4)CC3)nn12` [AZD5153] + C[C@@H]1COCCN1C2=NC(=NC(=C2)C3(CC3)[S@](=N)(=O)C)C4=C5C=CNC5=NC=C4 [AZD6738] (first compound max 1 µM, 7x7, partner max 10 µM), the “combination Emax” value (NCI-H2818 (Mesothelioma)) is reported as 0.281, the “combination Emax” value (WM-115 (Melanoma)) is reported as 0.481 and the “combination Emax” value [1] is reported as 0.484. The “combination Emax” value (MEL-JUSO (Melanoma)) was 0.502, the “combination Emax” value [2] was 0.977 and the “combination Emax” value [3] was 0.831. The “combination Emax” value (LN-18 (Glioblastoma)) was 0.815, the “combination Emax” value [4] was 0.756 and the “combination Emax” value [5] was 0.978. For the same compound, the “combination Emax” value [6] was 0.979, the “combination Emax” value [7] was 0.805 and the “combination Emax” value [8] was 0.911. The “combination Emax” value (TC-71 (Ewing's Sarcoma)) was 0.997, the “combination Emax” value [9] was 0.51 and the “combination Emax” value [10] was 0.661. For the same compound, the “combination Emax” value [11] was 0.802, the “combination Emax” value (U251 (Low Grade Glioma)) was 0.836 and the “combination Emax” value [12] was 0.591. For the same compound, the “combination Emax” value [13] was 1.

In the case of `COc1nnc2ccc(N3CCC(c4ccc(OCCN5CCN(C)C(=O)[C@H]5C)cc4)CC3)nn12` [AZD5153] + CCN(CCO)CCCOc1ccc2c(Nc3cc(CC(=O)Nc4cccc(F)c4)[nH]n3)ncnc2c1 [AZD2811] (first compound max 1 µM, 7x7, partner max 1 µM), the “combination Emax” value (NCI-H2818 (Mesothelioma)) is reported as 0.292, the “combination Emax” value (WM-115 (Melanoma)) is reported as 0.37 and the “combination Emax” value [1] is reported as 0.506. The “combination Emax” value (MEL-JUSO (Melanoma)) was 0.37, the “combination Emax” value [2] was 0.938 and the “combination Emax” value [3] was 0.656. For the same compound, the “combination Emax” value (LN-18 (Glioblastoma)) was 0.632, the “combination Emax” value [4] was 0.57 and the “combination Emax” value [5] was 0.68. The “combination Emax” value [6] was 0.667, the “combination Emax” value [7] was 0.668 and the “combination Emax” value [8] was 0.789. The “combination Emax” value (TC-71 (Ewing's Sarcoma)) was 0.884, the “combination Emax” value [9] was 0.43 and the “combination Emax” value [10] was 0.497. For the same compound, the “combination Emax” value [11] was 0.71, the “combination Emax” value (U251 (Low Grade Glioma)) was 0.661 and the “combination Emax” value [12] was 0.397. The “combination Emax” value [13] was 0.874.
